17 compounds from ChEMBL document CHEMBL1137723, “Non-imidazole histamine H3 ligands, part IV: SAR of 1-[2-thiazol-5-yl-(2-aminoethyl)]-4-n-propylpiperazine derivatives” (Eur J Med Chem, 2009) can be followed below.

Experiment [1] addresses Histamine H3 receptor (Cavia porcellus, UniProt Q9JI35). Description: Antagonist activity at histamine H3 receptor in guinea pig jejunum assessed as electrically evoked contractions. It is filed as functional, tissue-based. Conditions: read-out: pA2 (converted).
The target in experiment [2] is Histamine H1 receptor (Cavia porcellus, UniProt P31389). The experiment can be described thus: Antagonist activity at histamine H1 receptor in guinea pig ileum assessed as histamine-induced contractions. It is filed as functional, tissue-based. Conditions: read-out: pA2 (converted).
Sequence of Histamine H1 receptor (P31389 whole entry): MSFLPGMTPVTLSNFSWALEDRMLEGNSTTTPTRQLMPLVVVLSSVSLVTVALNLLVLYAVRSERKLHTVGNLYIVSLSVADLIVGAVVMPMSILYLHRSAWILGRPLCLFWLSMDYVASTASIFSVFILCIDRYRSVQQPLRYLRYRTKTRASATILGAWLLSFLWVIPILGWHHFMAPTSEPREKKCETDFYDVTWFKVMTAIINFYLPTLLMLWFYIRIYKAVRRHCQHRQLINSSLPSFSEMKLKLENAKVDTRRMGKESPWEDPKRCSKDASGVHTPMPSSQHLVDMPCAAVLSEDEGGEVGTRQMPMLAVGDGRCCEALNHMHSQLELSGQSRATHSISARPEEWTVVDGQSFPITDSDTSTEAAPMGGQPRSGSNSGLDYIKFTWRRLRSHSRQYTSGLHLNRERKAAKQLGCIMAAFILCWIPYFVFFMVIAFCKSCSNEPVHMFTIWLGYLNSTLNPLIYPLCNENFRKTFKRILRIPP

Sequence of Histamine H3 receptor (Q9JI35 whole entry): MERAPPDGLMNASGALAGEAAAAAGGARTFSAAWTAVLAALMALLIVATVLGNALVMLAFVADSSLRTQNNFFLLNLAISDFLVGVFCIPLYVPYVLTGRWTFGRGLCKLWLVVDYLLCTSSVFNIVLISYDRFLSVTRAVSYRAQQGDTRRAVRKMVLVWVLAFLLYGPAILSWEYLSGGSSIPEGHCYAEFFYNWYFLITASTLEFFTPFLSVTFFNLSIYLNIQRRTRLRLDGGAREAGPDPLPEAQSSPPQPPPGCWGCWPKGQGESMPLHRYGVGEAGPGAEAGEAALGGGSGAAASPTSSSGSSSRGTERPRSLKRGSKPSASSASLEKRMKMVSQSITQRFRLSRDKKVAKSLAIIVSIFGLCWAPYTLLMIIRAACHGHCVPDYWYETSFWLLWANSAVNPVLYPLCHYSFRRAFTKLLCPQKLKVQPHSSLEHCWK

`CCCN1CCN(c2nc3ccccc3s2)CC1`: the Kb in experiment [1] was 69.2 nM.

`CCCN1CCN(c2ncc(CCNC)s2)CC1`: the Kb in experiment [1] was 63.1 nM.

Consider `CCCCC(=O)N(C)CCc1cnc(N2CCN(CCC)CC2)s1`, for which the Kb in experiment [1] is 95.5 nM.

As to `CCCN1CCN(c2ncc(CCN(C)C=O)s2)CC1`, in experiment [1], the Kb is 55 nM.

On to `CCCN1CCN(c2ncc(CCN(C)CCCc3ccccc3)s2)CC1`, for which the results for the Kb in experiment [2] and in experiment [1] were above 100000 nM and 5.37 nM, respectively.

As to `S=C(NC1CCCCC1)N1CCC(c2cnc[nH]2)CC1` [THIOPERAMIDE], in experiment [1], the Kb was 0.871 nM.

Consider `CCCN1CCN(c2ncc(CCNC=O)s2)CC1`, for which, in experiment [1], the Kb was 117 nM.

`C=CCN1CCN(c2nc3ccccc3s2)CC1`: the Kb in experiment [1] is 79.4 nM.

As for `CCCCCN(C)CCc1cnc(N2CCN(CCC)CC2)s1`, the Kb in experiment [1] is 89.1 nM.

As for `CCCN1CCN(c2nc3cnccc3[nH]2)CC1`, the Kb in experiment [1] was 56.2 nM.

Consider `CCCN(C)CCc1cnc(N2CCN(CCC)CC2)s1`, for which the Kb in experiment [2] was above 100000 nM; in experiment [1], 29.5 nM.

For the compound `CCCN1CCN(c2nc3cnccc3o2)CC1`, the Kb in experiment [1] is 126 nM.

As for `CCCN1CCN(c2ncc(CCN(C)CCCCCc3ccccc3)s2)CC1`, the Kb in experiment [1] is 56.2 nM.

On to `CCCN1CCN(c2ncc(CCN(C)C)s2)CC1`, for which the results for the Kb in experiment [2] and in experiment [1] were above 100000 nM and 16.6 nM, respectively.

With `CCCN1CCN(c2ncc(CCN(C)C(=O)CC)s2)CC1`, the Kb in experiment [1] is 43.7 nM.

With `CCCN1CCN(c2ncc(CCN)s2)CC1`, the Kb in experiment [1] was 64.6 nM.

With `CCCN1CCN(c2ncc(CCN(C)Cc3ccccc3)s2)CC1`, the Kb in experiment [2] is above 100000 nM; in experiment [1], 17.4 nM.
